Measurements taken from the NIST ThermoML archive (doi:10.1016/j.jct.2003.11.007).

Key:
[1] = 101.33 kPa, Liquid
[2] = xn = mol fraction of the nth substance listed; settings: 101.3 kPa, Liquid

CCOC(=O)OCC [diethyl carbonate]
[1]
Settings | mass density [kg/m3]
288.15 K | 980.29
293.15 K | 974.57
298.15 K | 969.07
303.15 K | 963.6
308.15 K | 957.98
318.15 K | 947.67
328.15 K | 935.12

CCOC(=O)OCC [diethyl carbonate] + CCCCCCCCCCCC
[2]
Settings | mass density [kg/m3]
288.15 K, x1 = 0.1242 | 766.85
288.15 K, x1 = 0.2013 | 776.91
288.15 K, x1 = 0.2481 | 783.48
288.15 K, x1 = 0.309 | 792.61
288.15 K, x1 = 0.4053 | 808.61
288.15 K, x1 = 0.5069 | 827.83
288.15 K, x1 = 0.603 | 848.75
288.15 K, x1 = 0.7026 | 873.85
288.15 K, x1 = 0.8014 | 903.1
288.15 K, x1 = 0.8997 | 937.64
288.15 K, x1 = 0.9501 | 958.03
293.15 K, x1 = 0.1018 | 760.24
293.15 K, x1 = 0.2018 | 772.97
293.15 K, x1 = 0.2513 | 779.88
293.15 K, x1 = 0.3056 | 787.96
293.15 K, x1 = 0.4094 | 805.05
293.15 K, x1 = 0.5064 | 823.29
293.15 K, x1 = 0.604 | 844.35
293.15 K, x1 = 0.7024 | 868.92
293.15 K, x1 = 0.8026 | 898.28
293.15 K, x1 = 0.9022 | 933.11
293.15 K, x1 = 0.9498 | 952.23
298.15 K, x1 = 0.1025 | 756.57
298.15 K, x1 = 0.2042 | 769.39
298.15 K, x1 = 0.2522 | 776.01
298.15 K, x1 = 0.3009 | 783.17
298.15 K, x1 = 0.4041 | 799.89
298.15 K, x1 = 0.5027 | 818.2
298.15 K, x1 = 0.6059 | 840.28
298.15 K, x1 = 0.7074 | 865.61
298.15 K, x1 = 0.799 | 892.28
298.15 K, x1 = 0.8994 | 926.96
298.15 K, x1 = 0.9513 | 947.6
303.15 K, x1 = 0.1013 | 752.68
303.15 K, x1 = 0.2027 | 765.3
303.15 K, x1 = 0.2521 | 772.06
303.15 K, x1 = 0.3003 | 779.07
303.15 K, x1 = 0.4041 | 795.74
303.15 K, x1 = 0.4993 | 813.2
303.15 K, x1 = 0.605 | 835.58
303.15 K, x1 = 0.7035 | 859.82
303.15 K, x1 = 0.7993 | 887.45
303.15 K, x1 = 0.8999 | 921.93
303.15 K, x1 = 0.9508 | 942.05
308.15 K, x1 = 0.1049 | 749.28
308.15 K, x1 = 0.2059 | 761.76
308.15 K, x1 = 0.2441 | 766.93
308.15 K, x1 = 0.3043 | 775.59
308.15 K, x1 = 0.4026 | 791.26
308.15 K, x1 = 0.5062 | 810.2
308.15 K, x1 = 0.6032 | 830.59
308.15 K, x1 = 0.7045 | 855.29
308.15 K, x1 = 0.8015 | 883.09
308.15 K, x1 = 0.9005 | 916.79
308.15 K, x1 = 0.9507 | 936.48
318.15 K, x1 = 0.1041 | 741.75
318.15 K, x1 = 0.1989 | 753.22
318.15 K, x1 = 0.2492 | 759.89
318.15 K, x1 = 0.3079 | 768.25
318.15 K, x1 = 0.4075 | 783.98
318.15 K, x1 = 0.5 | 800.6
318.15 K, x1 = 0.6026 | 821.73
318.15 K, x1 = 0.7001 | 845.05
318.15 K, x1 = 0.7995 | 872.99
318.15 K, x1 = 0.8973 | 905.76
318.15 K, x1 = 0.9485 | 925.55
328.15 K, x1 = 0.1023 | 733.88
328.15 K, x1 = 0.2027 | 745.71
328.15 K, x1 = 0.2498 | 751.81
328.15 K, x1 = 0.3042 | 759.33
328.15 K, x1 = 0.3984 | 773.69
328.15 K, x1 = 0.5099 | 793.25
328.15 K, x1 = 0.6045 | 812.43
328.15 K, x1 = 0.7037 | 835.73
328.15 K, x1 = 0.7992 | 862.04
328.15 K, x1 = 0.8987 | 894.71
328.15 K, x1 = 0.9506 | 914.36
